In article PMC11514582, “Leveraging the Aggregated Protein Dye YAT2150 for Malaria Chemotherapy” (Pharmaceutics, 2024):
Values joined by “and” are separate entries in the source; they are usually repeats but may differ in a detail not shown here. Equal entries are not always repeated.

Tests used:
[1] = Cytotoxicity assay in MCF7 (MTT); format: cell-based; settings: human, MCF-7 cells, read-out: MCF7 inhibition (CC50)
Description: (§1) THP-1 human acute monocytic leukemia cells and NCI-H460 human lung carcinoma cells were grown in RPMI supplemented with 10% FBS. Hep-G2 human hepatocellular carcinoma cells were cultured in Eagle’s minimum essential medium (EMEM) supplemented with 10% FBS. A2780 human ovarian carcinoma cells were grown in RPMI supplemented with 10% FBS and 2 mM L-glutamine. MCF-7 human breast adenocarcinoma cells were cultured in EMEM containing 2 mM L-glutamine and Earle’s balanced salt solution adjusted with 1.5 g/L sodium bicarbonate, 0.1 mM non-essential amino acids, and 1 mM sodium pyruvate and supplemented with 10% FBS. […] Except for Caco-2 and HUVEC, inhibition of cell growth was evaluated using a protocol based on monitoring the transformation into formazan of the tetrazolium salt of MTT (3-(4,5-dimethylthiazol-2-yl)-2,5-diphenyltretrazolium bromide) by metabolically active cells. […] After 96 further h of incubation in the same conditions, 10 µL of a 5 mg/mL MTT solution in PBS was added to each sample, and the incubation was resumed for another 4 h. […] The absorbance measurement range was framed between one sample containing 4000 cells in plain growth medium (to determine the stable cell concentration) and another sample containing an equal cell number in growth medium supplemented with growth factors (to measure the maximum cell growth at 96 h).

[2] = Cytotoxicity assay in THP-1 (MTT); format: cell-based; settings: human, THP-1 cells, read-out: THP-1 inhibition (CC50)
Description: as §1

Caco-2 cells = assay: Influx and efflux assays in Caco-2 cells with transporter/endocytosis inhibitors; format: cell-based, human; settings: 5 µM, FBS-free medium
Description: The panel of influx and efflux membrane transporters expressed in Caco-2 cells has been previously characterized and, to a great extent, mimics the one described in human intestine. Based upon this information and the established knowledge of the physiology of intestinal transporters, we considered the following as possible YAT2150 influx transporters: Organic Cation Transporters (OCTs), Peptide Transporter 1 (PEPT1), and Organic Anion Transporter Polypeptide 2B1 (OATP2B1). […]
Caco-2 cells were grown in monolayer on a solid support at 37 °C in a humidified atmosphere with 5% CO2 and maintained in DMEM supplemented with 10% FBS, 2 mM L-glutamine, 1% MEM non-essential amino acids, 20 U/mL penicillin, and 20 µg/mL streptomycin (Life Technologies, Carlsbad, CA, USA). To identify YAT2150 influx and efflux mechanisms in Caco-2 cells, YAT2150 intracellular accumulation was determined by measuring its fluorescent emission at 610 nm under various experimental conditions as follows. A total of 50,000 cells/well were seeded in MW24 plates, and 24 h after seeding, YAT2150 influx and efflux were determined either in the presence or absence of FBS. […] Then, cells were washed with PBS, and intracellular YAT2150 was determined (see below). […] In parallel, emitted fluorescence was measured in an iBright Imaging System and quantified by iBright Analysis Software 5.3.0 (Thermo Fisher Scientific, Inc.). […]

[3] = cited from earlier work

With `CCN(CC)c1ccc(/C=C/c2cc[n+](CCCCCCCCCC[n+]3ccc(/C=C/c4ccc(N(CC)CC)cc4)c(C)c3)cc2C)cc1` [YAT2150] the CC50 at 96 h [1] was 0.93 ± 0.01 µM, the CC50 at 96 h [2] was 0.66 ± 0.01 µM and the “efflux route in Caco-2 cells” value (Caco-2 cells; with efflux inhibitors) was “OSTα/β transporters mediated YAT2150 efflux”. The “influx route in Caco-2 cells” value (Caco-2 cells; with influx inhibitors) was “mainly internalized by endocytosis and also through the OATP2B1 transporter”, the “Transport through Caco-2 AB (Papp)” value ([3]; apical to basolateral) was 207.6 ± 11.6 ^7 nm/s and the “Transport through Caco-2 Efflux ratio” value [3] was 0.5 and 0.48 ± 0.03 ^7.
